ChEMBL document CHEMBL1137932, “Synthesis of S-alkyl L-homocysteine analogues of glutathione and their kinetic studies with gamma-glutamyl transpeptidase” (Bioorg Med Chem Lett, 2004)

Experiments:
Format in all cases: tissue-based
[1] = molecular target: T1, Glutathione hydrolase 1 proenzyme (Rattus norvegicus, UniProt P07314); assay: Compound tested for the inhibition of Gamma-glutamyltranspeptidase in rat kidney at pH 8.0 at 37 degree C (Competitive inhibition)
[2] = molecular target: T1, Glutathione hydrolase 1 proenzyme; assay: Compound tested for the inhibition of Gamma-glutamyltranspeptidase in rat kidney at pH 8.0 at 37 degree C
[3] = molecular target: T1, Glutathione hydrolase 1 proenzyme; assay: Compound tested for the inhibition of Gamma-glutamyltranspeptidase in rat kidney at pH 8.0 at 37 degree C; N/0=No inhibition observed up to 20 mM

T1 sequence (P07314 1-379 limits assumed): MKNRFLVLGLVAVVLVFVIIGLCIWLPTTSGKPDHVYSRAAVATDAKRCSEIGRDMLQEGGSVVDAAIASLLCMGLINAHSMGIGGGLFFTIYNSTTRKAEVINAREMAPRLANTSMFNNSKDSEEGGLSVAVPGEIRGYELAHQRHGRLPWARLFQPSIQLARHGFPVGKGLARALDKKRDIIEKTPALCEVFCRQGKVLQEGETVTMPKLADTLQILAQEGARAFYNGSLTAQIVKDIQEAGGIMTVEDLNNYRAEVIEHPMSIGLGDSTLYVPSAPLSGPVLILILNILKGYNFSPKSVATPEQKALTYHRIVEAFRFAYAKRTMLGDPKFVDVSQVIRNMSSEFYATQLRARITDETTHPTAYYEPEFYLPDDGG
T1 sequence (P07314 380-568 limits assumed): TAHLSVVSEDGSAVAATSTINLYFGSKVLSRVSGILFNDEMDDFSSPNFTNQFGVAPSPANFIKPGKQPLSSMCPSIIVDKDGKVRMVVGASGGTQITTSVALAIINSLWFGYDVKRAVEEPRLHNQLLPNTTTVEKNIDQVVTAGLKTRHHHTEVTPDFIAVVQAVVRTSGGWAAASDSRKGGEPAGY

Row | Compound | Ki [1] [µM] | also measured
1 | NC(CC[S+]([O-])CCC(=O)NCC(=O)O)C(=O)O (configuration not stated) | 53 | –
2 | N[C@@H](CC[S+]([O-])Cc1ccc(C(=O)NCC(=O)O)cc1)C(=O)O (some centres not stated) | 230 | –
3 | N[C@@H](CCSCCC(=O)NCC(=O)O)C(=O)O | 520 | –
4 | N[C@@H](CCS(=O)(=O)CCC(=O)NCC(=O)O)C(=O)O | – | Ki [2]: 3500 µM
5 | CS(=O)(=O)CC[C@H](N)C(=O)O [METHIONINE SULFONE] | – | Ki [3]: No inhibition to 20mM
6 | C[S+]([O-])CC[C@H](N)C(=O)O (some centres not stated) [METHIONINE SULFOXIDE] | 5900 | –
7 | CSCC[C@H](N)C(=O)O [METHIONINE] | 26900 | –
